Experimental data as given in patent publication US20210009557A1, “ACYCLIC CXCR4 INHIBITORS AND USES THEREOF” (X4 Pharmaceuticals, Inc., priority 2017, published 2021).

Test system: Caco-2 cells
Test: in vitro
Settings: Caco-2

## Lucifer Yellow [reference compound]
  permeability for Lucifer Yellow: low permeability
